From US6693167B1, “Peptide-based gemini compounds” (SmithKline Beecham p.l.c., priority 1997, dated 2004)

What was measured:
Format in all cases: cell-based
HEK293 cells = assay: Transfection of luciferase plasmid into HEK293 cells
Experimental: All tissue culture reagents were obtained from Life Technologies Inc. HEK 293 cells were seeded at 2-3×10^5 cells per well in Nunc six-well culture plates, 24 hours prior to transfection. The cells were seeded in 2 mls Dulbeccos Modified Eagle medium containing Earles salts and supplemented with 10% v/v foetal bovine serum (=complete medium). The cells were grown at 37° C. in 5% CO2 in a humidified atmosphere. 6 ug DNA (“luciferase control plasmid” from Promega Corp.) were dissolved in 100 ul serum free medium (OPTI-MEM®). The peptide-based gemini compounds were made up at 1 mg/ml in tissue culture grade water and then diluted in OPTI-MEM® to the appropriate concentration to a final volume of […]. The DNA and gemini solutions were mixed (to a total volume of 200 ul; final concentrations of 5, 25, 50, 100, 150, 200, 250 and 300 ug/ml) and left at room temperature for 15 minutes. The DNA/gemini mix was placed onto the cells in each well and left in contact for 18-20 hours. The cells were then washed twice with phophate buffered saline prior to 1 ml of fresh complete medium being added. Cells were incubated for a further 24 hours prior to lysis and luciferase activity assayed.
All luciferase activity assays were performed using the Canberra Packard (Berkshire, UK) Luclite kit according to the manufacturer's instructions with the exception that the cells in each well were resuspended in 1 ml lysis buffer and 10 ul aliquots mixed with 100 ul of the luciferase substrate. The reaction mix was left for a 15 minutes adaptation period in the dark before counting for 5 minutes in a Top Count scintillation counter. Luciferase activity is measured as counts per second (CPS) from the scintillation counter. Four independent counts were taken per well.
Control transfections were set up with no DNA, CaPO4, an anionic gemini compound (1) and the commercially available lipofection reagents LipofectAmine™ and Lipotaxi™ at the manufacturers recommended concentrations (10, 25, 50, 75, 125 ug/ml and 175, 250, 325, 400 and 500 ug/ml respectively).

CHO-K1 cells [1] = assay: Transfection of luciferase plasmid into CHO-K1 cells
Experimental: CHO-K1 cells (ATCC: CRL-9618) were seeded into T25-culture flasks (Corning-Costar Buckinghamshire, UK), at 7×10^5 cells per flask, 24 hours prior to transfection. The CHO-K1 cells were seeded in 5 ml MEM alpha medium with ribonucleosides and deoxyribonucleosides and supplemented with 1×L-glutamine and 10% v/v foetal bovine serum (complete medium). The cells were grown at 37° C. in 5% CO2 in a humidified atmosphere.
For transfection, 5 ug DNA (luciferase control plasmid) was incubated with the gemini compounds in water (final volume 400 μl). The peptide-based gemini compounds were made up at 1 mg ml^−1 in tissue culture grade water and then diluted to the appropriate concentration to a total volume of 200 μl. Following a 30 minute room temperature incubation, 2.6 ml OPTI-MEM® medium was added and the solution placed on the cells. Following an overnight incubation at 37° C., the transfection solution was replaced with complete medium and the cells incubated at 37° C. 24 hours post transfection the cells were detached from the flask and seeded into 96-well plates at a density of 0.5×10^5 cells per well and incubated for a further 24 hours at 37° C. Luciferase reporter gene assays were performed according to the manufacturers instructions (Roche Diagnostics, Mannheim, Germany) approximately 48 hours post transfection. The plates were left for a 15 minutes adaption period in the dark before counting for 60 seconds in a TopCount NXT counter (Canberra Packard). An average of eight wells were counted per transfection.
Control transfections were set up with no DNA, an anionic gemini compound and the commercially available reagent LipofectAmine PLUS™.

CHO-K1 cells [2] = assay: Transfection of luciferase plasmid into CHO-K1 cells in combination with supplements (DOPE, PLUS)
Experimental: The transfection ability of the gemini compounds could be further enhanced by the addition of a neutral carrier, for example, dioleyl phosphatidylethanolamine (DOPE) (Farhood, H., et al (1985) Biochim. Biophys. Acta 1235 289) or a complexing reagent, for example, PLUS compound (Life Technologies Inc.). […] Transfection mediated by compound 55 with DOPE in a 2:1 ratio and the addition of 11.6 ul of PLUS compound lead to a mean count of 6.5×10^5 cps representing a 12-fold increase of luciferase activity in comparison to compound 55 alone. Incubation of the PLUS compound with the DNA and combination with compound 55 alone also lead to a 4-fold increase.

[3] = compound 55 with DOPE 2:1 plus 11.6 ul PLUS compound

Structure (SMILES): CCCCCCCCCCCCNC(=O)C(CO)NC(=O)C(CSCCSCC(NC(=O)C(N)CCCCNC(=O)C(N)CCCCN)C(=O)NC(CO)C(=O)NCCCCCCCCCCCC)NC(=O)C(N)CCCCNC(=O)C(N)CCCCN.Cl.Cl.Cl.Cl (stereo not shown) [Compound 55]
- Efficiency in facilitating transfection of the luciferase plasmid (HEK293 cells; at concentrations above 150 ug/ml): very efficient
- Most effective (peak) concentration for transfection (HEK293 cells; luciferase control plasmid): 300 µg/mL
- Luciferase activity, mean count at peak efficiency (HEK293 cells; luciferase control plasmid, at the agent's most effective concentration, mean of 4 independent counts): about 45,000 cps
- Efficiency in facilitating transfection of the luciferase plasmid (CHO-K1 cells [1]): very efficient
- Luciferase activity, mean count at most effective concentration (CHO-K1 cells [1]; 5 ug luciferase control plasmid, mean of 8 wells): about 2.4×10^5 cps
- Most effective (peak) concentration for transfection (CHO-K1 cells [1]; luciferase control plasmid): 30 µM
- Increase of luciferase activity (CHO-K1 cells [2]; PLUS compound incubated with the DNA, combined with compound 55 alone (no DOPE)): 4 fold
- Increase of luciferase activity (CHO-K1 cells [2]; compound 55 and DOPE at 2:1 ratio): 9 fold
- Increase of luciferase activity in comparison to compound 55 alone (CHO-K1 cells [2]; [3]): 12 fold
- Luciferase activity, mean count (CHO-K1 cells [2]; [3]): 6.5×10^5 cps
